Where two headings read alike, the source gives them in different places. Residues, ends and D or L forms follow the SMILES beside them.
Tests used:
[1] = test system: S. pyogenes (M1); assay type: cell-based, Streptococcus pyogenes; details: for MBC: M1
Method: (§1) Peptides were screened against Escherichia coli (BL21), Streptococcus pyogenes (M1T1 5448, hereby referred to as M1), Pseudomonas aeruginosa (PAO1), and Staphylococcus aureus (USA300). Overnight bacterial cultures were grown in optimal media for each species: Luria-Bertani (LB) broth for E. coli, P. aeruginosa, and S. aureus, and Todd-Hewitt (TH) broth for S. pyogenes. Cultures were pelleted and re-suspended in Mueller-Hinton (MH) broth for peptide screens or minimal inhibitory concentration (MIC) assays, with 1 × 10^6 CFU/mL bacteria added per well ([Wiegand et al., 2008]). MICs for each parent peptide were identified against each bacterial strain as previously described ([Fields et al., 2018]). Members of each peptide library were screened against each bacterial strain at half of the MIC of the corresponding parent peptide to identify library members with increased antimicrobial activity relative to the parent peptide. […] Minimal bactericidal concentrations (MBCs) were determined following the respective MIC assays by plating aliquots from wells corresponding to each peptide concentration from the 96-well plate used for the MIC on species-appropriate agar. Plates were incubated at 37°C overnight, and MBCs were identified as the lowest concentrations of peptide at which no colonies were obtained. A Synergy H1 Microplate Reader (BioTek, Winooski, VT, United States) was used to determine the MICs and identify peptides with greater antimicrobial activity than the corresponding parent peptide by measuring OD 600 of the bacterial cultures in 96-well microtiter plates.

[2] = test system: E. coli (BL21); assay type: cell-based, Escherichia coli; details: for MBC: BL21; for MIC: BL21, 16 h
Method: as §1

[3] = test system: P. aeruginosa (PAO1); assay type: cell-based, Pseudomonas aeruginosa; details: for MBC: PAO1; for MIC: PAO1, 16 h
Method: as §1

[4] = test system: S. aureus (USA300); assay type: cell-based, Staphylococcus aureus; details: for MBC: USA300; for MIC: USA300, 16 h
Method: as §1

| MIC ([1]; S. pyogenes M1) | MIC [2] | MIC [3] | MIC [4] | MIC ([1]; M1, 16 h) | Structure (SMILES) | MBC [1] | MBC [2] | MBC [3] | MBC [4] |
| --- | --- | --- | --- | --- | --- | --- | --- | --- | --- |
| 500 nM | 4 µM | 64 µM | >128 µM | – | CC[C@H](C)[C@H](NC(=O)[C@H](CCCCN)NC(=O)CNC(=O)[C@H](Cc1ccccc1)NC(=O)[C@H](CCCCN)NC(=O)[C@H](CCCNC(=N)N)NC(=O)[C@H](CC(C)C)NC(=O)[C@H](Cc1ccc(O)cc1)NC(=O)[C@H](CCC(=O)O)NC(=O)[C@H](CC(C)C)NC(=O)[C@H](CC(C)C)NC(=O)[C@H](CCC(=O)O)NC(=O)[C@H](CCCCN)NC(=O)[C@@H](NC(=O)[C@H](CC(C)C)NC(=O)[C@H](CCCNC(=N)N)NC(=O)[C@H](CCC(N)=O)NC(=O)[C@H](C)NC(=O)CNC(=O)[C@H](C)N)[C@@H](C)O)C(=O)N[C@@H](C)C(=O)N[C@@H](CCCNC(=N)N)C(=O)N[C@@H](CCCCN)C(=O)N[C@@H](C)C(=O)N[C@@H](Cc1c[nH]c2ccccc12)C(=O)O [Syn-xiamencin-7] (H-AGAQRLTKELLEYLRKFGKIARKAW-OH; N-terminus and C-terminus assumed) | 0.5 µM | 4 µM | 128 µM | >128 µM |
| 250 nM | 16 µM | >128 µM | >128 µM | – | CC[C@H](C)[C@H](NC(=O)[C@H](CCCNC(=N)N)NC(=O)[C@H](C)NC(=O)[C@H](CCCCN)NC(=O)[C@H](CCCCN)NC(=O)CNC(=O)[C@H](Cc1ccccc1)NC(=O)[C@H](CCCCN)NC(=O)[C@H](CCCNC(=N)N)NC(=O)[C@H](CC(C)C)NC(=O)[C@H](CCC(=O)O)NC(=O)[C@H](CCC(=O)O)NC(=O)[C@H](CCCCN)NC(=O)[C@H](CC(C)C)NC(=O)[C@H](Cc1ccc(O)cc1)NC(=O)[C@H](CC(C)C)NC(=O)[C@@H](NC(=O)[C@H](CC(C)C)NC(=O)[C@H](C)NC(=O)[C@H](CCC(N)=O)NC(=O)[C@H](CCCNC(=N)N)NC(=O)CNC(=O)[C@@H](N)Cc1c[nH]c2ccccc12)[C@@H](C)O)C(=O)N[C@@H](C)C(=O)N[C@@H](Cc1c[nH]c2ccccc12)C(=O)O [Syn-xiamencin-13] (H-WGRQALTLYLKEELRKFGKKARIAW-OH; N-terminus and C-terminus assumed) | 0.25 µM | 32 µM | >128 µM | >128 µM |
| – | 2 µM | >128 µM | 64 µM | 1000 nM | CC[C@H](C)[C@H](NC(=O)[C@H](CCCCN)NC(=O)CNC(=O)[C@H](Cc1ccccc1)NC(=O)[C@H](CCCCN)NC(=O)[C@H](CCCNC(=N)N)NC(=O)[C@H](CC(C)C)NC(=O)[C@H](Cc1ccc(O)cc1)NC(=O)[C@H](CCC(=O)O)NC(=O)[C@H](CC(C)C)NC(=O)[C@H](CC(C)C)NC(=O)[C@H](CCC(=O)O)NC(=O)[C@H](CCCCN)NC(=O)[C@@H](NC(=O)[C@H](CC(C)C)NC(=O)[C@H](CCCNC(=N)N)NC(=O)[C@H](CCC(N)=O)NC(=O)[C@H](C)NC(=O)CNC(=O)[C@@H](N)Cc1c[nH]c2ccccc12)[C@@H](C)O)C(=O)N[C@@H](C)C(=O)N[C@@H](CCCNC(=N)N)C(=O)N[C@@H](CCCCN)C(=O)N[C@@H](C)C(=O)N[C@@H](Cc1c[nH]c2ccccc12)C(=O)O [Syn-xiamencin-15] (H-WGAQRLTKELLEYLRKFGKIARKAW-OH; N-terminus and C-terminus assumed) | 1 µM | 2 µM | >128 µM | 128 µM |

Source: article PMC7689250, “Synthetic Peptide Libraries Designed From a Minimal Alpha-Helical Domain of AS-48-Bacteriocin Homologs Exhibit Potent Antibacterial Activity” (Frontiers in Microbiology, 2020)
